According to article PMC12171880, “Selectivity and Safety Characterization of a Xanthine–Imidazothiazole Lead Structure: a Novel Tryptophan Hydroxylase Inhibitor of Peripheral Serotonin Synthesis” (ACS Pharmacology & Translational Science, 2025):

What was measured:
Sprague–Dawley rats [1] = assay: Dose-range finding study in rats, histopathology; type: in vivo, rat
Method: (§1) Blood samples were collected as described below. The animal sacrifice (exsanguination) was performed on day 8. During the necropsy, the selected organs were collected, weighed, and shipped to a third-party laboratory for histopathological examination (as described below).
The histological evaluation was performed by AnaPath Services GmbH (Liestal, Switzerland). The samples from the organs–liver, kidney, lung, heart, brain, femur, and ovary–were fixed in 4% neutral-buffered formaldehyde. The testes were fixed by using the Davidson solution. All tissues were trimmed, processed, and embedded in paraffin wax. Samples from the femur were processed and embedded in paraffin after decalcification. Blocks were cut at an approximate thickness of 2–4 μm and stained with hematoxylin and eosin (HE) according to AnaPath Services GmbH SOP’s. The slides were checked under the microscope for a quality check before examination under a light microscope by the study pathologist.

Sprague–Dawley rats [2] = assay: Dose-range finding study in rats, clinical chemistry; type: in vivo, rat; details: for ALT (GPT) / Albumin / Albumin/ globulin ratio / Alkaline phosphatase / Bile acids / Bilirubin total / Calcium / Chloride / Cholesterol / Creatine kinase / Creatinine / GLDH / Globulin / Glucose / Inorganic phosphate / Potassium / Sodium / Total protein / Triglycerides / Urea (BUN): day 8
Method: (§2) TPT-004 was formulated in 0.5% (w/v) CMC-Na in water and administered by oral gavage (PO) twice daily (b.i.d.) with a 12 h interval to the treatment groups (3 male and 3 female Sprague–Dawley rats each) for 8 days (15 successive applications). Rats were dosed with 10, 45, and 200 mg/kg, i.e., daily doses of 20, 90, and 400 mg/kg. In addition, a control group was dosed at the same frequency as the vehicle (0.5% CMC-Na).
A blood sample of 100 μL was obtained from each rat by puncturing one of the lateral tail veins under short isoflurane anesthesia. Blood was collected in tubes containing lithium heparin and gently mixed. After centrifugation (10 min at 3000g, 4 °C), plasma was separated and stored at −20 °C until LC-MS analysis. In addition, on day 8, the rats were exsanguinated by cardiac puncture under isoflurane anesthesia. A volume of 100 μL of blood (K3-EDTA) was used for immediate cell blood count, while the rest of the blood was mixed with lithium heparin and centrifuged to generate plasma for clinical chemistry analysis.

[3] = system: MC38 colorectal carcinoma model; details: mouse colorectal carcinoma; previous study; cited from earlier work
mice = details: 14 days repeated oral treatment, 10 or 50 mg/kg BID, previous study; cited from earlier work
Sprague–Dawley rats [4] = assay: Dose-range finding study in rats, in-life phase; type: in vivo, rat
Method: The in-life phase of the experiment was performed at Pharmacelsus GmbH (Saarbrücken, Germany) and enrolled 24 Sprague–Dawley rats (12 males and 12 females) provided by Janvier Laboratories (France); the animals were 7 weeks old at delivery. Inclusion criteria (sex, appropriate body weight, and absence of behavioral changes) were established prior to the study’s commencement. The animals were housed in a temperature-controlled room (20–24 °C) and maintained in a 12 h light/12 h dark cycle. Before the start of the study, the animals underwent a six-day acclimation period. Food and water were available ad libitum throughout the duration of the study.
as §2, §1

[5] = 10, 45, or 200 mg/kg BID PO, 8 days
[6] = 10, 45 or 200 mg/kg BID PO, D1 to D8

For `CCn1c(=O)[nH]c(=O)c2c1nc(Cc1cn3cc(C)sc3n1)n2CC1COC1` [TPT-004], the “histopathological findings in heart, spleen, kidney, lung, brain, femur, testis, or ovary” value (Sprague–Dawley rats [1]; 45 and 200 mg/kg BID) was “no test-related findings”, the “histopathological finding in the liver” value (Sprague–Dawley rats [1]; only at doses ≥45 mg/kg BID) was “multifocal, minimal centrilobular hypertrophy” and the “ALT (GPT)” value (Sprague–Dawley rats [2]; 10 mg/kg PO BID) was 49 U/L. The Albumin (Sprague–Dawley rats [2]; 10 mg/kg PO BID) was 31 g/L, the Albumin/ globulin ratio (Sprague–Dawley rats [2]; 10 mg/kg PO BID) was 1.33 and the Alkaline phosphatase (Sprague–Dawley rats [2]; 10 mg/kg PO BID) was 402 U/L. The Bile acids (Sprague–Dawley rats [2]; 10 mg/kg PO BID) was 6.3 µmol/L, the Bilirubin total (Sprague–Dawley rats [2]; 10 mg/kg PO BID) was 1.7 µmol/L and the Calcium (Sprague–Dawley rats [2]; 10 mg/kg PO BID) was 2.6 mmol/L. For the same compound, the Chloride (Sprague–Dawley rats [2]; 10 mg/kg PO BID) was 101 mmol/L, the Cholesterol (Sprague–Dawley rats [2]; 10 mg/kg PO BID) was 2.25 mmol/L and the Creatine kinase (Sprague–Dawley rats [2]; 10 mg/kg PO BID) was 406 U/L. The Creatinine (Sprague–Dawley rats [2]; 10 mg/kg PO BID) was 24 µmol/L, the GLDH (Sprague–Dawley rats [2]; 10 mg/kg PO BID) was 7 U/L and the Globulin (Sprague–Dawley rats [2]; 10 mg/kg PO BID) was 23 g/L. It also gave a Glucose (Sprague–Dawley rats [2]; 10 mg/kg PO BID) of 11.2 mmol/L, an Inorganic phosphate (Sprague–Dawley rats [2]; 10 mg/kg PO BID) of 2.3 mmol/L and a Potassium (Sprague–Dawley rats [2]; 10 mg/kg PO BID) of 4.7 mmol/L. The Sodium (Sprague–Dawley rats [2]; 10 mg/kg PO BID) was 143 mmol/L, the Total protein (Sprague–Dawley rats [2]; 10 mg/kg PO BID) was 54 g/L and the Triglycerides (Sprague–Dawley rats [2]; 10 mg/kg PO BID) was 1.2 mmol/L. For the same compound, the “Urea (BUN)” value (Sprague–Dawley rats [2]; 10 mg/kg PO BID) was 6.4 mmol/L, the “ALT (GPT)” value (Sprague–Dawley rats [2]; 45 mg/kg PO BID) was 52 U/L and the Albumin (Sprague–Dawley rats [2]; 45 mg/kg PO BID) was 30 g/L. For the same compound, the Albumin/ globulin ratio (Sprague–Dawley rats [2]; 45 mg/kg PO BID) was 1.34, the Alkaline phosphatase (Sprague–Dawley rats [2]; 45 mg/kg PO BID) was 434 U/L and the Bile acids (Sprague–Dawley rats [2]; 45 mg/kg PO BID) was 16.6 µmol/L. The Bilirubin total (Sprague–Dawley rats [2]; 45 mg/kg PO BID) was 1.7 µmol/L, the Calcium (Sprague–Dawley rats [2]; 45 mg/kg PO BID) was 2.7 mmol/L and the Chloride (Sprague–Dawley rats [2]; 45 mg/kg PO BID) was 101 mmol/L. It also gave a Cholesterol (Sprague–Dawley rats [2]; 45 mg/kg PO BID) of 2.5 mmol/L, a Creatine kinase (Sprague–Dawley rats [2]; 45 mg/kg PO BID) of 415 U/L and a Creatinine (Sprague–Dawley rats [2]; 45 mg/kg PO BID) of 26 µmol/L. For the same compound, the GLDH (Sprague–Dawley rats [2]; 45 mg/kg PO BID) was 6 U/L, the Globulin (Sprague–Dawley rats [2]; 45 mg/kg PO BID) was 23 g/L and the Glucose (Sprague–Dawley rats [2]; 45 mg/kg PO BID) was 12.3 mmol/L. The Inorganic phosphate (Sprague–Dawley rats [2]; 45 mg/kg PO BID) was 2.4 mmol/L, the Potassium (Sprague–Dawley rats [2]; 45 mg/kg PO BID) was 4.7 mmol/L and the Sodium (Sprague–Dawley rats [2]; 45 mg/kg PO BID) was 142 mmol/L. The Total protein (Sprague–Dawley rats [2]; 45 mg/kg PO BID) was 53 g/L, the Triglycerides (Sprague–Dawley rats [2]; 45 mg/kg PO BID) was 1.7 mmol/L and the “Urea (BUN)” value (Sprague–Dawley rats [2]; 45 mg/kg PO BID) was 6.0 mmol/L. For the same compound, the “ALT (GPT)” value (Sprague–Dawley rats [2]; 200 mg/kg PO BID) was 67 U/L, the Albumin (Sprague–Dawley rats [2]; 200 mg/kg PO BID) was 30 g/L and the Albumin/ globulin ratio (Sprague–Dawley rats [2]; 200 mg/kg PO BID) was 1.32. For the same compound, the Alkaline phosphatase (Sprague–Dawley rats [2]; 200 mg/kg PO BID) was 313 U/L, the Bile acids (Sprague–Dawley rats [2]; 200 mg/kg PO BID) was 20.4 µmol/L and the Bilirubin total (Sprague–Dawley rats [2]; 200 mg/kg PO BID) was 1.7 µmol/L. The Calcium (Sprague–Dawley rats [2]; 200 mg/kg PO BID) was 2.6 mmol/L, the Chloride (Sprague–Dawley rats [2]; 200 mg/kg PO BID) was 101 mmol/L and the Cholesterol (Sprague–Dawley rats [2]; 200 mg/kg PO BID) was 2.6 mmol/L. The Creatine kinase (Sprague–Dawley rats [2]; 200 mg/kg PO BID) was 321 U/L, the Creatinine (Sprague–Dawley rats [2]; 200 mg/kg PO BID) was 24 µmol/L and the GLDH (Sprague–Dawley rats [2]; 200 mg/kg PO BID) was 7 U/L. It also gave a Globulin (Sprague–Dawley rats [2]; 200 mg/kg PO BID) of 23 g/L, a Glucose (Sprague–Dawley rats [2]; 200 mg/kg PO BID) of 13.5 mmol/L and an Inorganic phosphate (Sprague–Dawley rats [2]; 200 mg/kg PO BID) of 2.4 mmol/L. The Potassium (Sprague–Dawley rats [2]; 200 mg/kg PO BID) was 4.9 mmol/L, the Sodium (Sprague–Dawley rats [2]; 200 mg/kg PO BID) was 143 mmol/L and the Total protein (Sprague–Dawley rats [2]; 200 mg/kg PO BID) was 53 g/L. For the same compound, the Triglycerides (Sprague–Dawley rats [2]; 200 mg/kg PO BID) was 1.4 mmol/L, the “Urea (BUN)” value (Sprague–Dawley rats [2]; 200 mg/kg PO BID) was 7.0 mmol/L and the “clinical chemistry parameters, overall” value (Sprague–Dawley rats [2]; [5]) was “no relevant difference”. The “dose needed to achieve the therapeutic effects” value [3] was 50 mg/kg BID, the “neuropsychiatric effects in behavioral tests” value (mice) was “no neuropsychiatric effects were observed” and the clinical signs (Sprague–Dawley rats [4]; [5]) was “None of the rats exhibited clinical signs”. The survival (Sprague–Dawley rats [4]; [5]) was “All of the animals survived”, the body weight (Sprague–Dawley rats [4]; [6]) was “increased normally” and the food consumption (Sprague–Dawley rats [4]; [6]) was “in the same range as that of the control group”.
